“Also recorded” adds a separate entry of the source.
Tested on: KCa3.1
Experiment: Whole cell patch clamp of FcεR1 stimulated KCa3.1 channel activity in BMMCs
Format: cell-based, mouse
Conditions: for rescue of FcεR1 stimulated KCa3.1 channel activity: TRIM27+/+ BMMC transfected with siRNA to PI3KC2β, phosphoinositide added to the pipette solution (PI3P 100 nM)
Protocol: Whole cell patch clamping was performed on TRIM27^+/+ and TRIM27^−/− BMMCs that were first sensitized overnight with anti-DNP IgE and then stimulated with DNP-HSA using conditions previously described (5). Briefly, the standard pipette solution contained 140 mM KCl, 2 mM MgCl2, 10 mM Hepes, 2 mM Na^+-ATP and 0.1 mM GTP, pH 7.3. The standard external solution contained 140 mM NaCl, 5 mM KCl, 2 mM CaCl2, 1 mM MgCl2 and 10 mM Hepes, pH 7.3. Whole-cell currents were recorded using an Axoclamp 200 B amplifier (Axon Instruments, Foster City, Calif., USA), and currents were evoked by applying voltage commands to a range of potentials in 10 mV steps from a holding potential of 20 mV. For measuring the membrane potential, ruptured patch was used in current clamp mode as described in (34).
To verify that PI3KC2β mediated activation of KCa3.1 via the generation of PI3P, PI3P (100 nM) was added into the pipette solution during patch clamping in BMMCs in which PI3KC2β was knocked down using siRNA (32). PI(3)P diC16 [C41H45Na3O16P2 (C6)] was purchased from Echelon Biosciences and used according to specifications at a concentration of 100 nM in the pipette solution.

CCCCCCCCCCCCCCCC(=O)OC[C@H](COP(=O)(O)O[C@@H]1[C@H](O)[C@H](OP(=O)(O)O)[C@@H](O)[C@H](O)[C@H]1O)OC(=O)CCCCCCCCCCCCCCC [PI3P, phosphatidylinositol 3 phosphate]
rescue of FcεR1 stimulated KCa3.1 channel activity: restored
rescue of KCa3.1 channel activity (TRIM27-/- BMMC transfected with siRNA to PI3KC2β, PI3P added to the pipette solution): rescue

PI(3,4,5)P3
rescue of FcεR1 stimulated KCa3.1 channel activity: failed to rescue; also recorded: failure

PI4P
rescue of FcεR1 stimulated KCa3.1 channel activity: failed to rescue
rescue of FcεR1 stimulated KCa3.1 channel activity (listed as PI(4)P): failure

Reference: patent US20150204846A1, “PHOSPHATIDYLINOSITOL-3-KINASE C2 BETA MODULATORS AND METHODS OF USE THEREOF” (NEW YORK UNIVERSITY, priority 2012, published 2015)
